Test: xn = mol fraction of the nth substance listed
Settings: for electrical conductivity: 101 kPa, frequency 2 MHz; for viscosity: 100 kPa

O=S(=O)([O-])C(F)(F)F.[Li+] + O=S(=O)([N-]S(=O)(=O)C(F)(F)F)C(F)(F)F.[Li+] + O
Settings	electrical conductivity, 318.1 K [S/m]	electrical conductivity, 323 K [S/m]	electrical conductivity, 328.1 K [S/m]	electrical conductivity, 333 K [S/m]	viscosity, 318.15 K [mPa·s]	viscosity, 328.15 K [mPa·s]
x1 = 0.04029, x2 = 0.1114	–	–	–	–	4.4	3.5
x1 = 0.07222, x2 = 0.1893	–	–	–	–	15.2	11.5
x1 = 0.09226, x2 = 0.2336	–	–	–	–	31.9	22.9
x1 = 0.1024, x2 = 0.2553	–	–	–	–	43.4	30.9
x1 = 0.1122, x2 = 0	–	–	–	–	2.27	1.85
x1 = 0.1122, x2 = 0.2745	–	–	–	–	63	43.6
x1 = 0.1783, x2 = 0	–	–	–	–	5.3	4.2
x1 = 0.2388, x2 = 0	–	–	–	–	11.1	8.6
x1 = 0.2541, x2 = 0	–	–	–	–	15.9	12.2
x1 = 0.2743, x2 = 0	–	–	–	–	23.9	18.1
x2 = 0.001799, x1 = 0.0005943	1.16	1.26	1.37	1.47	–	–
x2 = 0.005377, x1 = 0.001799	2.87	3.132	3.4	3.66	–	–
x2 = 0.00893, x1 = 0.003054	4.22	4.612	5.004	5.39	–	–
x2 = 0.01246, x1 = 0.004127	5.324	5.82	6.316	6.804	–	–
x2 = 0.01596, x1 = 0.005377	6.231	6.813	7.39	7.97	–	–
x2 = 0.01944, x1 = 0.006623	6.98	7.629	8.28	8.919	–	–
x2 = 0.05129, x1 = 0.0177	9.39	10.26	11.13	12	–	–
x2 = 0.08265, x1 = 0.02921	8.25	9.028	9.803	10.6	–	–
x2 = 0.112, x1 = 0.04029	6.46	7.08	7.716	8.339	–	–
x2 = 0.1395, x1 = 0.05129	4.845	5.343	5.846	6.348	–	–
x2 = 0.1654, x1 = 0.06203	3.58	3.97	4.37	4.78	–	–
x2 = 0.1898, x1 = 0.07238	2.631	2.943	3.27	3.59	–	–
x2 = 0.2128, x1 = 0.08265	1.932	2.18	2.439	2.706	–	–
x2 = 0.2345, x1 = 0.0927	1.418	1.616	1.824	2.041	–	–
x2 = 0.2551, x1 = 0.1024	1.04	1.2	1.36	–	–	–
x2 = 0.2745, x1 = 0.112	0.76	0.884	1.017	–	–	–

— the CheMixHub ionic liquid set
